The subject of test [1] is mouse BMP-2 mRNA. Description: Real-time RT-PCR of BMP-2 mRNA in bone marrow MSCs from OVX mice. It counts as cell-based. To be noted: 100 nM E2, 24 hr. How it is done:
Two months old Swiss-Webster female mice (ICR) were OVX in accordance with mandated standards of humane care, and the animals were maintained in accordance with the NIH Guide for the Care and Use of Laboratory Animals. After 5 months post-surgery, bone marrow was isolated from femurs and tibias, and the MSCs were cultured as described previously (Gazit et al. 1999 and Zhou et al. 2001). The bone marrow cells were maintained in DMEM (Phenol red free, 1.0 g/L glucose, Biological Industries, Israel) with 15% FBS (Charcoal stripped, heat-inactivated), 100 units/ml penicillin, 100 μg/ml streptomycin, and 2 mM glutamine. […]
(§1) RNA was isolated using TRizol Reagent (Life Technologies, USA), according to the manufacturer's protocol. Semi-quantitative RT-PCR was performed as described previously (Zhou et al. 2001). […]
Real-Time PCR was performed using a Roche LightCycler according to the manufacturer's protocol (Roche Molecular Biochemicals, USA). […] Fluoresence was measured at 82° C. for 5 s. To quantify the copy number of the mouse BMP-2 mRNA in MSCs, pGEM-T-mouse BMP-2 plasmids ([…]) were used in standard curve.
All experiments were performed three to five times independently. […] The semi-quantitative RT-PCR and real-time RT-PCR were performed 3 times in independent experiments using total RNA that was isolated from MSCs derived from 3-6 animals each time. […]
(In general: Quantitative PCR measures a nucleic acid by following its amplification.)

Test [2] has as its system mouse BMP-2 mRNA. Description: Semi-quantitative RT-PCR of BMP-2 mRNA in MSCs from OVX mice. The format is cell-based. As to conditions: for BMP-2 mRNA expression, effect of the substance alone: E2 100 nM, ICI 10 μM, tamoxifen 1.0 μM, raloxifene 100 nM. How it is done:
(§2) Two months old Swiss-Webster female mice (ICR) were OVX in accordance with mandated standards of humane care, and the animals were maintained in accordance with the NIH Guide for the Care and Use of Laboratory Animals. After 5 months post-surgery, bone marrow was isolated from femurs and tibias, and the MSCs were cultured as described previously (Gazit et al. 1999 and Zhou et al. 2001). The bone marrow cells were maintained in DMEM (Phenol red free, 1.0 g/L glucose, Biological Industries, Israel) with 15% FBS (Charcoal stripped, heat-inactivated), 100 units/ml penicillin, 100 μg/ml streptomycin, and 2 mM glutamine. At day 4, the cultures were supplemented with 50 μg/ml ascorbic acid, 10 mM β-glycerophosphate, and 10 nM dexamethasone. From day 10, the cells were cultured in DMEM with 2% charcoal stripped (CS)-FBS without osteogenic supplements. […] RNA then was isolated at day 12. […] Mouse C3H10T1/2 cells were cultivated in DMEM (Sigma and Biological Industries) with 10% FBS, 100 units/ml penicillin, 100 μg/ml streptomycin, and 2 mM glutamine.
RNA was isolated using TRizol Reagent (Life Technologies, USA), according to the manufacturer's protocol. Semi-quantitative RT-PCR was performed as described previously (Zhou et al. 2001). Mouse BMP-2 (505 bp) (Zhou et al. 2001), internal control RPL19 (190 bp) (Orly et al. 1994) and c-myc (550 bp) (Goswami et al. 1997) primers were described previously. The PCR conditions used for mouse BMP-2 RT-PCR were 30 cycles of 94 C for 1 min, 55 C for 1 min and 72 for 2 min in an MJ MiniCycler (MJ Research, USA). RT-PCR products of mouse BMP-2 were cloned into the pGEM-T Easy vector (A1360, Promega), and the pGEM-T-mouse BMP-2 vectors were sequenced by a T7 sequence sequencing kit (US70770, USB, Cleveland, USA) according to the manufacturer's protocols. DNA sequence analysis confirmed that mouse BMP-2 had been amplified.
All experiments were performed three to five times independently. Data re presented as the mean values±the standard error of the mean. The semi-quantitative RT-PCR and real-time RT-PCR were performed 3 times in independent experiments using total RNA that was isolated from MSCs derived from 3-6 animals each time. Quantitative data were analyzed using either the non-parameteric Mann-Whitney test or the ANOVA test.

The test system of test [3] is c-myc mRNA. Briefly: Semi-quantitative RT-PCR of c-myc mRNA in MSCs from OVX mice. It counts as cell-based, mouse. To be noted: 5.0 μM cycloheximide. How it is done: as §2, §1
For test [4], the target named is human ERβ (Homo sapiens, UniProt Q92731). Briefly: Mouse BMP-2 promoter-luciferase assay in C3H10T1/2 cells co-transfected with human ERβ. To be noted: 24 hr; E2 different doses or 10 nM, raloxifene 100 nM, tamoxifen 1.0 μM, genistein 100 nM.

Molecules are shown by their SMILES. Entries after “also recorded” stand apart in the source; their conditions may differ.

Chain of human ERβ (Q92731 46-530 limits assumed): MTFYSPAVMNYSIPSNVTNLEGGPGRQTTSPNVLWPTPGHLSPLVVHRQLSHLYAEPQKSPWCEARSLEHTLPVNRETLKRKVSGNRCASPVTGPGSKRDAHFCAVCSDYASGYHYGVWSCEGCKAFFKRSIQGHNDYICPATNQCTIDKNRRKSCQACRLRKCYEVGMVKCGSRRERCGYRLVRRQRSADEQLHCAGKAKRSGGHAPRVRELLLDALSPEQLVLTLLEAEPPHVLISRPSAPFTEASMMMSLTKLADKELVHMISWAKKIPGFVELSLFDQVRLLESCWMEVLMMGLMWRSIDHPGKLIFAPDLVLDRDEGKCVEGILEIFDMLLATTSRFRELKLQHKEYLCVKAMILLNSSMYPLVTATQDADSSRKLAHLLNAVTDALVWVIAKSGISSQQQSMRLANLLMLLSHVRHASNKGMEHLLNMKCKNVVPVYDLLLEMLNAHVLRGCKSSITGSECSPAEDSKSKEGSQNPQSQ

On to `C[C@]12CC[C@@H]3c4ccc(O)cc4CC[C@H]3[C@@H]1CC[C@@H]2O` [E2, estradiol], for which the “increase of mouse BMP-2 mRNA levels” value in test [1] (versus untreated) stood at 2.4 fold. In addition, in test [1] (in 2 μg of total RNA, untreated 570±81 copies, p<0.05, ANOVA), the “mouse BMP-2 mRNA levels” value was found to be 1337±177 copies. With `C[C@]12CC[C@@H]3c4ccc(O)cc4C[C@@H](CCCCCCCCC[S+]([O-])CCCC(F)(F)C(F)(F)F)[C@H]3[C@@H]1CC[C@@H]2O` (stereo partly drawn) [ICI-182,780], the “BMP-2 mRNA expression, effect of the substance alone” value (from here on “BMP-2 mRNA expression, effect”) in test [2] (24 hr, listed as ICI) is “had no effect; also recorded: failed to activate”. The “effect on up-regulation of BMP-2 mRNA expression by E2” value in test [2] (ICI 10 μM with E2 100 nM, 24 hr, listed as ICI) is given as “blocked; also recorded: inhibited”.

Turning to `C[C@@H]1C[C@@H]([C@H](O)CC2CC(=O)NC(=O)C2)C(=O)[C@@H](C)C1` [cycloheximide], in test [2] (5.0 μM cycloheximide added 45 min before 100 nM E2, RNA 4 hr after E2), the “effect on up-regulation of BMP-2 mRNA by E2” value is on record as “did not block”. Further, the “c-myc mRNA levels” value in test [3] is on record as “super-induction; also recorded: superinduction”. Take `O=C(c1ccc(OCCN2CCCCC2)cc1)c1c(-c2ccc(O)cc2)sc2cc(O)ccc12` [raloxifene]: the “BMP-2 mRNA expression, effect” value in test [2] (24 hr) was “failed to activate”. Besides, the “full-length mouse BMP-2 promoter (−2712) activity via ERβ” value in test [4] was “not via ERβ”. For `CC/C(=C(\c1ccccc1)c1ccc(OCCN(C)C)cc1)c1ccccc1` [tamoxifen], the “BMP-2 mRNA expression, effect” value in test [2] (24 hr) is “failed to activate”.

For the origin of these results see US20050271637A1, “BMP-2 estrogen responsive element and methods of using the same” (priority 2002, published 2005).
